Measured values published in ChEMBL document CHEMBL3352542, “Synthesis, biological evaluation and molecular modeling study of 2-(1,3,4-thiadiazolyl-thio and 4-methyl-thiazolyl-thio)-quinazolin-4-ones as a new class of DHFR inhibitors” (Bioorg Med Chem Lett, 2014).
Active and inactive are the calls of the source. The calls are words filed in the database; no cut-off is given here.

Experiments:
Staphylococcus aureus = experiment: Antimicrobial activity against Staphylococcus aureus assessed as inhibition zone at 200 ug/disk after 24 hrs by disc-diffusion method; type: functional; conditions: read-out: IZ
HOP-92 = experiment: Growth inhibition of human HOP92 cells at 10 uM after 48 hrs; type: functional
UACC-257 = experiment: Growth inhibition of human UACC257 cells at 10 uM after 48 hrs; type: functional
HT-29 = experiment: Growth inhibition of human HT-29 cells at 10 uM after 48 hrs; type: functional
M14 = experiment: Growth inhibition of human M14 cells at 10 uM after 48 hrs; type: functional
HCC 2998 = experiment: Growth inhibition of human HCC2998 cells at 10 uM after 48 hrs; type: functional
NCI/ADR-RES = experiment: Growth inhibition of human NCI-ADR-RES cells at 10 uM after 48 hrs; type: functional
786-0 = experiment: Growth inhibition of human 786-0 cells at 10 uM after 48 hrs; type: functional
CAKI-1 = experiment: Growth inhibition of human CAKI-1 cells at 10 uM after 48 hrs; type: functional
MOLT-4 = experiment: Growth inhibition of human MOLT4 cells at 10 uM after 48 hrs; type: functional
SK-MEL-5 = experiment: Growth inhibition of human SK-MEL-5 cells at 10 uM after 48 hrs; type: functional
SW-620 = experiment: Growth inhibition of human SW620 cells at 10 uM after 48 hrs; type: functional
Hs-578T = experiment: Growth inhibition of human Hs 578T cells at 10 uM after 48 hrs; type: functional
PC-3 = experiment: Growth inhibition of human PC3 cells at 10 uM after 48 hrs; type: functional
RPMI-8226 = experiment: Growth inhibition of human RPMI8226 cells at 10 uM after 48 hrs; type: functional
TK-10 = experiment: Growth inhibition of human TK10 cells at 10 uM after 48 hrs; type: functional
SF-539 = experiment: Growth inhibition of human SF539 cells at 10 uM after 48 hrs; type: functional
A498 = experiment: Growth inhibition of human A498 cells at 10 uM after 48 hrs; type: functional
UACC-62 = experiment: Growth inhibition of human UACC62 cells at 10 uM after 48 hrs; type: functional
NCI-H23 = experiment: Growth inhibition of human NCI-H23 cells at 10 uM after 48 hrs; type: functional
OVCAR-5 = experiment: Growth inhibition of human OVCAR5 cells at 10 uM after 48 hrs; type: functional
NCI-H460 = experiment: Growth inhibition of human NCI-H460 cells at 10 uM after 48 hrs; type: functional
UO-31 = experiment: Growth inhibition of human UO31 cells at 10 uM after 48 hrs; type: functional
U-251 = experiment: Growth inhibition of human U251 cells at 10 uM after 48 hrs; type: functional
RXF 393 = experiment: Growth inhibition of human RXF393 cells at 10 uM after 48 hrs; type: functional
Pseudomonas aeruginosa = experiment: Antimicrobial activity against Pseudomonas aeruginosa assessed as inhibition zone at 200 ug/disk after 24 hrs by disc-diffusion method; type: functional; conditions: read-out: IZ
MDA-MB-435 = experiment: Growth inhibition of human MDA-MB-435 cells at 10 uM after 48 hrs; type: functional
Bacillus subtilis = experiment: Antimicrobial activity against Bacillus subtilis assessed as inhibition zone at 200 ug/disk after 24 hrs by disc-diffusion method; type: functional; conditions: read-out: IZ
MDA-MB-231 = experiment: Growth inhibition of human MDA-MB-231 cells at 10 uM after 48 hrs; type: functional
SNB-19 = experiment: Growth inhibition of human SNB19 cells at 10 uM after 48 hrs; type: functional
HCT-116 = experiment: Growth inhibition of human HCT116 cells at 10 uM after 48 hrs; type: functional
K562 = experiment: Growth inhibition of human K562 cells at 10 uM after 48 hrs; type: functional
MDA-MB-468 = experiment: Growth inhibition of human MDA-MB-468 cells at 10 uM after 48 hrs; type: functional
NCI-H226 = experiment: Growth inhibition of human NCI-H226 cells at 10 uM after 48 hrs; type: functional
SN12C = experiment: Growth inhibition of human SN12C cells at 10 uM after 48 hrs; type: functional
CCRF-CEM = experiment: Growth inhibition of human CCRF-CEM cells at 10 uM after 48 hrs; type: functional
Escherichia coli = experiment: Antimicrobial activity against Escherichia coli assessed as inhibition zone at 200 ug/disk after 24 hrs by disc-diffusion method; type: functional; conditions: read-out: IZ
HL-60(TB) = experiment: Growth inhibition of human HL-60(TB) cells at 10 uM after 48 hrs; type: functional
SR = experiment: Growth inhibition of human SR cells at 10 uM after 48 hrs; type: functional
OVCAR-4 = experiment: Growth inhibition of human OVCAR4 cells at 10 uM after 48 hrs; type: functional
A549 = experiment: Growth inhibition of human A549 cells at 10 uM after 48 hrs; type: functional
SF-268 = experiment: Growth inhibition of human SF268 cells at 10 uM after 48 hrs; type: functional
BT-549 = experiment: Growth inhibition of human BT549 cells at 10 uM after 48 hrs; type: functional
Dihydrofolate reductase = target: T1, Dihydrofolate reductase (Bos taurus, UniProt P00376); experiment: Inhibition of bovine liver DHFR
T1 sequence (P00376 whole entry): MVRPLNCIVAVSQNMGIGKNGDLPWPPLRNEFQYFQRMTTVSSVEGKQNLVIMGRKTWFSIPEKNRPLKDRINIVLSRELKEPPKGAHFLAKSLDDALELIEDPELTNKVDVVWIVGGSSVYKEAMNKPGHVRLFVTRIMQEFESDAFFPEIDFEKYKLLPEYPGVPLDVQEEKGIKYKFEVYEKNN

MCF7 = experiment: Growth inhibition of human MCF7 cells at 10 uM after 48 hrs; type: functional
SF-295 = experiment: Growth inhibition of human SF295 cells at 10 uM after 48 hrs; type: functional
SNB-75 = experiment: Growth inhibition of human SNB75 cells at 10 uM after 48 hrs; type: functional
HCT-15 = experiment: Growth inhibition of human HCT15 cells at 10 uM after 48 hrs; type: functional
Candida albicans = experiment: Antimicrobial activity against Candida albicans assessed as inhibition zone at 200 ug/disk after 24 hrs by disc-diffusion method; type: functional; conditions: read-out: IZ
COLO 205 = experiment: Growth inhibition of human COLO205 cells at 10 uM after 48 hrs; type: functional
Malme-3M = experiment: Growth inhibition of human MALME-3M cells at 10 uM after 48 hrs; type: functional
KM12 = experiment: Growth inhibition of human KM12 cells at 10 uM after 48 hrs; type: functional
OVCAR-3 = experiment: Growth inhibition of human OVCAR3 cells at 10 uM after 48 hrs; type: functional
ACHN = experiment: Growth inhibition of human ACHN cells at 10 uM after 48 hrs; type: functional
T47D = experiment: Growth inhibition of human T47D cells at 10 uM after 48 hrs; type: functional
LOX IMVI = experiment: Growth inhibition of human LOXIMVI cells at 10 uM after 48 hrs; type: functional
NCI-H522 = experiment: Growth inhibition of human NCI-H522 cells at 10 uM after 48 hrs; type: functional
OVCAR-8 = experiment: Growth inhibition of human OVCAR8 cells at 10 uM after 48 hrs; type: functional

Cc1ccc2nc(Sc3nnc(N)s3)n(Cc3ccccc3)c(=O)c2c1
zone of inhibition at 200 µg/disc (Staphylococcus aureus): 8 mm
growth inhibition (GI) (HOP-92): inactive
growth inhibition (GI) (UACC-257): inactive
growth inhibition (GI) (HT-29): inactive
growth inhibition (GI) (M14): inactive
growth inhibition (GI) (HCC 2998): inactive
growth inhibition (GI) (NCI/ADR-RES): inactive
growth inhibition (GI) (786-0): inactive
growth inhibition (GI) (CAKI-1): inactive
growth inhibition (GI) (MOLT-4): inactive
growth inhibition (GI) (SK-MEL-5): inactive
growth inhibition (GI) (SW-620): inactive
growth inhibition (GI) (Hs-578T): inactive
growth inhibition (GI) (PC-3): inactive
growth inhibition (GI) (RPMI-8226): inactive
growth inhibition (GI) (TK-10): inactive
growth inhibition (GI) (SF-539): inactive
growth inhibition (GI) (A498): inactive
growth inhibition (GI) (UACC-62): inactive
growth inhibition (GI) (NCI-H23): inactive
growth inhibition (GI) (OVCAR-5): inactive
growth inhibition (GI) (NCI-H460): inactive
growth inhibition (GI) (UO-31): inactive
growth inhibition (GI) (U-251): inactive
growth inhibition (GI) (RXF 393): inactive
zone of inhibition at 200 µg/disc (Pseudomonas aeruginosa): 8 mm
growth inhibition (GI) (MDA-MB-435): inactive
zone of inhibition at 200 µg/disc (Bacillus subtilis): 8 mm
growth inhibition (GI) (MDA-MB-231): inactive
growth inhibition (GI) (SNB-19): inactive
growth inhibition (GI) (HCT-116): inactive
growth inhibition (GI) (K562): inactive
growth inhibition (GI) (MDA-MB-468): inactive
growth inhibition (GI) (NCI-H226): inactive
growth inhibition (GI) (SN12C): inactive
growth inhibition (GI) (CCRF-CEM): inactive
zone of inhibition at 200 µg/disc (Escherichia coli): 8 mm
growth inhibition (GI) (HL-60(TB)): inactive
growth inhibition (GI) (SR): inactive
growth inhibition (GI) (OVCAR-4): inactive
growth inhibition (GI) (A549): inactive
growth inhibition (GI) (SF-268): inactive
growth inhibition (GI) (BT-549): inactive
IC50 (Dihydrofolate reductase): 2 µM
growth inhibition (GI) (MCF7): inactive
growth inhibition (GI) (SF-295): inactive
growth inhibition (GI) (SNB-75): inactive
growth inhibition (GI) (HCT-15): inactive
zone of inhibition at 200 µg/disc (Candida albicans): 8 mm
growth inhibition (GI) (COLO 205): inactive
growth inhibition (GI) (Malme-3M): inactive
growth inhibition (GI) (KM12): inactive
growth inhibition (GI) (OVCAR-3): inactive
growth inhibition (GI) (ACHN): inactive
growth inhibition (GI) (T47D): inactive
growth inhibition (GI) (LOX IMVI): inactive
growth inhibition (GI) (NCI-H522): inactive
growth inhibition (GI) (OVCAR-8): inactive

COc1cc2nc(Sc3sc(N)nc3C)n(-c3ccc(C)cc3)c(=O)c2cc1OC
zone of inhibition at 200 µg/disc (Staphylococcus aureus): 8 mm
growth inhibition (GI) (HOP-92): inactive
growth inhibition (GI) (UACC-257): inactive
growth inhibition (GI) (HT-29): inactive
growth inhibition (GI) (M14): inactive
growth inhibition (GI) (HCC 2998): inactive
growth inhibition (GI) (NCI/ADR-RES): inactive
growth inhibition (GI) (786-0): inactive
growth inhibition (GI) (CAKI-1): inactive
growth inhibition (GI) (MOLT-4): inactive
growth inhibition (GI) (SK-MEL-5): inactive
growth inhibition (GI) (SW-620): inactive
growth inhibition (GI) (Hs-578T): inactive
growth inhibition (GI) (PC-3): inactive
growth inhibition (GI) (RPMI-8226): inactive
growth inhibition (GI) (TK-10): inactive
growth inhibition (GI) (SF-539): inactive
growth inhibition (GI) (A498): inactive
growth inhibition (GI) (UACC-62): inactive
growth inhibition (GI) (NCI-H23): inactive
growth inhibition (GI) (OVCAR-5): inactive
growth inhibition (GI) (NCI-H460): inactive
growth inhibition (GI) (UO-31): inactive
growth inhibition (GI) (U-251): inactive
growth inhibition (GI) (RXF 393): inactive
zone of inhibition at 200 µg/disc (Pseudomonas aeruginosa): 8 mm
growth inhibition (GI) (MDA-MB-435): inactive
zone of inhibition at 200 µg/disc (Bacillus subtilis): 8 mm
growth inhibition (GI) (MDA-MB-231): inactive
growth inhibition (GI) (SNB-19): inactive
growth inhibition (GI) (HCT-116): inactive
growth inhibition (GI) (K562): inactive
growth inhibition (GI) (MDA-MB-468): inactive
growth inhibition (GI) (NCI-H226): inactive
growth inhibition (GI) (SN12C): inactive
growth inhibition (GI) (CCRF-CEM): inactive
zone of inhibition at 200 µg/disc (Escherichia coli): 8 mm
growth inhibition (GI) (HL-60(TB)): inactive
growth inhibition (GI) (SR): inactive
growth inhibition (GI) (OVCAR-4): inactive
growth inhibition (GI) (A549): inactive
growth inhibition (GI) (SF-268): inactive
growth inhibition (GI) (BT-549): inactive
IC50 (Dihydrofolate reductase): 8 µM
growth inhibition (GI) (MCF7): inactive
growth inhibition (GI) (SF-295): inactive
growth inhibition (GI) (SNB-75): inactive
growth inhibition (GI) (HCT-15): inactive
zone of inhibition at 200 µg/disc (Candida albicans): 8 mm
growth inhibition (GI) (COLO 205): inactive
growth inhibition (GI) (Malme-3M): inactive
growth inhibition (GI) (KM12): inactive
growth inhibition (GI) (OVCAR-3): inactive
growth inhibition (GI) (ACHN): inactive
growth inhibition (GI) (T47D): inactive
growth inhibition (GI) (LOX IMVI): inactive
growth inhibition (GI) (NCI-H522): inactive
growth inhibition (GI) (OVCAR-8): inactive
